Data published in the NIST ThermoML archive (doi:10.1021/acs.jced.7b01030).
Where “and” joins values, the source holds several entries; their conditions need not be identical. Identical values can stand only once. ± gives the expanded uncertainty stated by the source.

Conditions: Liquid; for mass density: Vibrating tube method; for viscosity: Falling or rolling sphere viscometry; for self diffusion coefficient: NMR spin-echo technique

OCC(F)(F)F [2,2,2-trifluoroethanol]
mass density (303.15 K, 100 kPa): 1374.17 ± 0.63 kg/m3 | viscosity (308.15 K, 100 kPa): 1.384 ± 0.057 mPa·s | self diffusion coefficient (308.28 K, 100 kPa): 9.35e-10 m2/s | viscosity (313.15 K, 100 kPa): 1.219 ± 0.05 mPa·s and 1.221 ± 0.05 mPa·s | mass density (313.15 K, 100 kPa): 1356.64 ± 0.63 kg/m3 | viscosity (318.15 K, 100 kPa): 1.081 ± 0.044 mPa·s and 1.078 ± 0.044 mPa·s | self diffusion coefficient (318.17 K, 100 kPa): 1.24e-09 m2/s and 1.22e-09 m2/s | viscosity (322.14 K, 10500 kPa): 1.125 ± 0.046 mPa·s and 1.128 ± 0.046 mPa·s | viscosity (322.14 K, 25500 kPa): 1.286 ± 0.052 mPa·s | viscosity (322.14 K, 50500 kPa): 1.561 ± 0.064 mPa·s | viscosity (322.14 K, 75000 kPa): 1.827 ± 0.074 mPa·s | viscosity (322.14 K, 75200 kPa): 1.828 ± 0.074 mPa·s | viscosity (322.14 K, 100300 kPa): 2.137 ± 0.087 mPa·s | viscosity (323.15 K, 100 kPa): 0.989 ± 0.04 mPa·s [middle of 9 runs] | mass density (323.15 K, 100 kPa): 1338.58 ± 0.63 kg/m3 | viscosity (323.15 K, 10000 kPa): 1.091 ± 0.045 mPa·s | viscosity (323.15 K, 10100 kPa): 1.09 ± 0.045 mPa·s | viscosity (323.15 K, 25300 kPa): 1.246 ± 0.051 mPa·s | viscosity (323.15 K, 25400 kPa): 1.248 ± 0.051 mPa·s | viscosity (323.15 K, 49500 kPa): 1.492 ± 0.061 mPa·s | viscosity (323.15 K, 49700 kPa): 1.493 ± 0.061 mPa·s | viscosity (323.15 K, 74800 kPa): 1.781 ± 0.073 mPa·s | viscosity (323.15 K, 75000 kPa): 1.789 ± 0.073 mPa·s | viscosity (323.15 K, 99900 kPa): 2.075 ± 0.086 mPa·s | viscosity (323.15 K, 100000 kPa): 2.073 ± 0.084 mPa·s | viscosity (323.15 K, 100400 kPa): 2.096 ± 0.087 mPa·s and 2.093 ± 0.086 mPa·s | viscosity (323.15 K, 125000 kPa): 2.396 ± 0.098 mPa·s | viscosity (323.15 K, 125400 kPa): 2.395 ± 0.098 mPa·s | viscosity (323.15 K, 150100 kPa): 2.737 ± 0.11 mPa·s | viscosity (323.15 K, 150500 kPa): 2.738 ± 0.11 mPa·s | viscosity (323.15 K, 176000 kPa): 3.131 ± 0.13 mPa·s | viscosity (323.15 K, 200300 kPa): 3.654 ± 0.16 mPa·s | viscosity (323.15 K, 200800 kPa): 3.651 ± 0.39 mPa·s | viscosity (323.15 K, 210100 kPa): 3.837 ± 0.16 mPa·s and 3.849 ± 0.16 mPa·s | viscosity (323.15 K, 225200 kPa): 4.134 ± 0.27 mPa·s | viscosity (323.15 K, 225300 kPa): 4.131 ± 0.24 mPa·s | viscosity (323.15 K, 226700 kPa): 4.028 ± 0.2 mPa·s | viscosity (323.15 K, 227900 kPa): 4.058 ± 0.28 mPa·s | viscosity (323.15 K, 248900 kPa): 4.6 ± 0.24 mPa·s | viscosity (323.15 K, 249400 kPa): 4.614 ± 0.24 mPa·s | viscosity (323.15 K, 275300 kPa): 5.192 ± 0.21 mPa·s | viscosity (323.15 K, 275600 kPa): 5.209 ± 0.21 mPa·s | viscosity (323.15 K, 300600 kPa): 5.834 ± 0.78 mPa·s | viscosity (323.15 K, 301200 kPa): 5.853 ± 0.82 mPa·s | viscosity (323.15 K, 325600 kPa): 6.509 ± 0.9 mPa·s | viscosity (323.15 K, 326200 kPa): 6.562 ± 0.51 mPa·s | viscosity (323.15 K, 347900 kPa): 7.187 ± 0.56 mPa·s | viscosity (323.15 K, 349200 kPa): 7.207 ± 0.56 mPa·s | self diffusion coefficient (323.4 K, 100 kPa): 1.45e-09 m2/s | self diffusion coefficient (323.5 K, 100 kPa): 1.39e-09 m2/s | self diffusion coefficient (323.51 K, 100 kPa): 1.42e-09 m2/s | self diffusion coefficient (323.51 K, 23000 kPa): 1.21e-09 m2/s | self diffusion coefficient (323.51 K, 50000 kPa): 1.01e-09 m2/s | self diffusion coefficient (323.51 K, 74000 kPa): 8.73e-10 m2/s | self diffusion coefficient (323.51 K, 99500 kPa): 7.59e-10 m2/s | self diffusion coefficient (323.51 K, 300000 kPa): 3.12e-10 m2/s | self diffusion coefficient (323.52 K, 150000 kPa): 5.97e-10 m2/s | self diffusion coefficient (323.52 K, 198500 kPa): 4.81e-10 m2/s | self diffusion coefficient (323.52 K, 249000 kPa): 3.9e-10 m2/s | self diffusion coefficient (323.53 K, 351000 kPa): 2.57e-10 m2/s | viscosity (328.15 K, 100 kPa): 0.8939 ± 0.037 mPa·s and 0.8974 ± 0.037 mPa·s | self diffusion coefficient (328.35 K, 100 kPa): 1.63e-09 m2/s | viscosity (333.15 K, 100 kPa): 0.8117 ± 0.033 mPa·s | mass density (333.15 K, 100 kPa): 1319.81 ± 0.62 kg/m3 | viscosity (338.15 K, 100 kPa): 0.7379 ± 0.03 mPa·s and 0.7382 ± 0.03 mPa·s | mass density (338.15 K, 100 kPa): 1310.14 ± 0.62 kg/m3 | self diffusion coefficient (338.44 K, 100 kPa): 1.95e-09 m2/s | self diffusion coefficient (342.8 K, 100 kPa): 2.21e-09 m2/s | viscosity (343.15 K, 100 kPa): 0.671 ± 0.028 mPa·s [middle of 5 runs] | mass density (343.15 K, 100 kPa): 1300.26 ± 0.62 kg/m3 | viscosity (343.15 K, 10500 kPa): 0.7504 ± 0.031 mPa·s and 0.7498 ± 0.031 mPa·s | viscosity (343.15 K, 25500 kPa): 0.8438 ± 0.034 mPa·s | viscosity (343.15 K, 50000 kPa): 1.016 ± 0.041 mPa·s | viscosity (343.15 K, 76400 kPa): 1.229 ± 0.05 mPa·s and 1.228 ± 0.05 mPa·s | viscosity (343.15 K, 99900 kPa): 1.425 ± 0.058 mPa·s | viscosity (343.15 K, 100500 kPa): 1.411 ± 0.058 mPa·s | viscosity (343.15 K, 100700 kPa): 1.419 ± 0.058 mPa·s and 1.416 ± 0.058 mPa·s | viscosity (343.15 K, 100900 kPa): 1.421 ± 0.058 mPa·s | viscosity (343.15 K, 125800 kPa): 1.666 ± 0.068 mPa·s | viscosity (343.15 K, 126100 kPa): 1.66 ± 0.068 mPa·s | viscosity (343.15 K, 150000 kPa): 1.894 ± 0.077 mPa·s | viscosity (343.15 K, 150200 kPa): 1.899 ± 0.077 mPa·s | viscosity (343.15 K, 175300 kPa): 2.141 ± 0.087 mPa·s | viscosity (343.15 K, 175600 kPa): 2.149 ± 0.087 mPa·s | viscosity (343.15 K, 200400 kPa): 2.397 ± 0.098 mPa·s | viscosity (343.15 K, 200700 kPa): 2.409 ± 0.098 mPa·s | viscosity (343.15 K, 225200 kPa): 2.644 ± 0.11 mPa·s | viscosity (343.15 K, 225400 kPa): 2.672 ± 0.11 mPa·s | viscosity (343.15 K, 249500 kPa): 2.924 ± 0.12 mPa·s | viscosity (343.15 K, 249800 kPa): 2.935 ± 0.12 mPa·s | viscosity (343.15 K, 276600 kPa): 3.259 ± 0.13 mPa·s | viscosity (343.15 K, 277100 kPa): 3.277 ± 0.13 mPa·s | viscosity (343.15 K, 300300 kPa): 3.57 ± 0.15 mPa·s | viscosity (343.15 K, 301200 kPa): 3.596 ± 0.15 mPa·s | viscosity (343.15 K, 325100 kPa): 3.91 ± 0.16 mPa·s | viscosity (343.15 K, 325600 kPa): 3.939 ± 0.16 mPa·s | viscosity (343.15 K, 350100 kPa): 4.306 ± 0.18 mPa·s | viscosity (343.15 K, 352100 kPa): 4.376 ± 0.18 mPa·s | self diffusion coefficient (348.02 K, 152000 kPa): 1.06e-09 m2/s | self diffusion coefficient (348.06 K, 25000 kPa): 2.11e-09 m2/s | self diffusion coefficient (348.06 K, 101000 kPa): 1.35e-09 m2/s | self diffusion coefficient (348.07 K, 100 kPa): 2.57e-09 m2/s | self diffusion coefficient (348.07 K, 50500 kPa): 1.79e-09 m2/s | self diffusion coefficient (348.07 K, 74500 kPa): 1.57e-09 m2/s | self diffusion coefficient (348.07 K, 348000 kPa): 5.2e-10 m2/s | self diffusion coefficient (348.08 K, 175000 kPa): 9.55e-10 m2/s | self diffusion coefficient (348.08 K, 200000 kPa): 8.68e-10 m2/s | self diffusion coefficient (348.08 K, 249500 kPa): 7.32e-10 m2/s | self diffusion coefficient (348.08 K, 299000 kPa): 6.15e-10 m2/s | self diffusion coefficient (348.08 K, 350000 kPa): 5.16e-10 m2/s
